Experimental data taken from patent publication US20230331676A1, “NAPHTHYLUREA COMPOUND, METHODS OF PREPARATION AND USE THEREOF” (Henan Radiomedical Science and Technology Co., Ltd., priority 2021, published 2023).

Tests used:
Assay type in all cases: cell-based
[1] = system: tumor cells such as breast cancer (MDA-MB-468) and liver cancer (HepG2); test: MTT assay, inhibition of tumor cell proliferation; conditions: 48 h, compared with positive control WP1066, IC50 values only in FIG. 1
Procedure: Tumor cells in logarithmic growth phase were collected; the cell suspension was diluted to a density of 5×10^4 cells/mL; 100 uL of the cell suspension was transferred to each hole of a 96-well plate; DMSO was used as a solvent for negative control; (2E)-3-(6-bromo-2-pyridyl)-2-cyano-N-[(1S)-1-phenylethyl]-2-acrylamide (WP1066CAS: 857064-38-1, with a formula
was used as a positive control; the naphthylurea compounds IY210216D-1, ID210203C-1 and IY210316B-1 were diluted with DMSO and added into the 96-well plate to a final concentration of 0.1, 0.3, 1, 3, 10, 30, 100 and 300 μmol/L; the 96-well plate was incubated for 48 h; 10 μL of MTT solvent (5 mg/mL) was added into each well; the 96-well plate was incubated at 37° C. for 4 h; a culture supernatant was discarded; 150 μL of DMSO was added into each well; the 96-well plate was shaken for 10 min on a plate shaker; an optical density (OD) of the resulting product was measured at a wavelength of 490 nm by an ELISA reader. Test results were recorded. A cell growth curve was drawn with the dosage of each compound as abscissa and the absorbance value as ordinate. The statistical results of the half inhibition rate (IC50 value) of tumor cells by the compounds IY210216D-1, ID210203C-1 and IY210316B-1 were shown in FIG. 1.

MDA-MB-468 cells [2] = test: Apoptosis by Annexin V-FITC/PI flow cytometry, MDA-MB-468
Procedure: (§1) The MDA-MB-468 or HepG2 cells were harvested during log phase, digested, centrifuged and prepared into a single cell suspension; the number of the cells in the cell suspension was counted; the cells were seeded into a 12-well plate, with 2×10^5 cells per well; three wells were used as a parallel control design; 16 hours after seeding, the cells were treated with the compounds.
(§2) With DMSO as a solvent, the final concentrations of the compounds IY210216D-1 and ID210203C-1 in HepG2 cell suspension were 0, 2, 4 and 8 μM, respectively, and the final concentrations of the compound IY210316B-1 in MDA-MB-468 cell suspension were 0 and 0.12 μM, respectively. […]

HepG2 cells [3] = test: Cell cycle distribution by flow cytometry (PI), HepG2; conditions: hepatoma cells (HepG2), 2, 4, 8 μM, 48 h, vs DMSO
Procedure: (§3) MDA-MB-468 or HepG2 cells were harvested during log phase, digested, centrifuged and prepared into a single cell suspension; the number of the cells in the single cell suspension was counted; the cells were seeded into a 12-well plate, with 2×10^5 cells per well; three wells were used as a parallel control design; 16 hours after seeding, the cells were treated with the compounds. With DMSO as a solvent, the final concentrations of the compounds IY210216D-1 and ID210203C-1 in HepG2 cell suspension were 0, 2, 4 and 8 μM, respectively, and the final concentrations of the compounds IY210216D-1 and ID210203C-1 in MDA-MB-468 cell suspension were 0 and 2 μM, respectively. 48 hours later, the cells were digested with trypsin and resuspended; the number of the cells in the cell suspension was counted and diluted to 5×10^5 cells/mL; after the digestion was completed, the cell suspension was centrifuged; the supernatant was discarded; the pellet was washed twice with PBS (each time the mixture was centrifuged 2000 rpm for 5 min); the supernatant was discarded; a fixative comprising 980 μL of 70% cold ethanol and 20 μL of 5% BSA (a small amount of BSA reduces cellular stress and damage) was added to each microcentrifuge tube, so that the cells were fixed overnight at 4° C.; the fixative is discarded; the cells were washed three times in PBS to remove residual fixative (each time the mixture was centrifuged at 1000 rpm for 3 min); a DNA quantification kit is used to measure the content of DNA according to the following instruction (Suo Laibao, Beijing): each sample was incubated in 100 μL of RNase A at 37° C. for 30 min; 500 μL of PI (propidium iodide) was added to each sample; each sample was incubated at room temperature for 30 min in the dark; the cell cycle was analyzed by a flow cytometry and a ModFit software; and Graphpad prism 6.0 was used to estimate the percentage of a cell population in the different phases of the cell cycle.

MDA-MB-468 cells [4] = test: Cell cycle distribution by flow cytometry (PI), MDA-MB-468; conditions: breast cancer cells (MDA-MB-468), 2 μM, 48 h, vs DMSO
Procedure: as §3

HepG2 cells [5] = test: Apoptosis by Annexin V-FITC/PI flow cytometry, HepG2; conditions: HepG2, 0, 2, 4, 8 μM, 48 h, vs control group
Procedure: as §1, §2

HepG2 liver cancer cells = test: Q-PCR of mRNA level of cell cycle and metastasis related molecules; conditions: HepG2, 4 μM, 24 hours; for down-regulation of Cyclin B1 (CCNB1) mRNA level / down-regulation of Cyclin D1 (CCND1) mRNA level: relative to actin gene
Procedure: HepG2 liver cancer cells were seeded in a 6-well plate, with 1×10^6 cells per well, and treated with the compounds IY210216D-1 and ID210203C-1 (in 0 and 4 μM concentrations) for 24 h; total RNA was extracted from the HepG2 liver cancer cells by a single-step TRIzol method; the concentration and purity of the total RNA was measured; the total RNA was used as a template; and complementary DNA (cDNA) was synthesized from the RNA template according to the instruction of a reverse transcription kit (Promega); sqRT-PCR and qPCR were used to quantify the expression of the genes CCNB1, CDK1 and SQSTM; and the gene ACTB was used as an internal reference gene for gene expression normalization.
A20 μL reaction mix for qPCR contained: • 2 μL of cDNA; • 10 μL of 2×SYBR Green Supermix; • 1 μL of upstream and downstream primers; • 0.3 μL of reference dye; • 6.7 μL of water. • Each sample has three technical replicates. • Cycling conditions comprised: • pre-denaturation at 95° C. for 5 min; • denaturation at 95° C. for 15 sec; • annealing at 60° C. for 15 sec; and • extension at 72° C. for 30 sec.
After 40 cycles, the cycle […] (CT) value of the […] gene was used as an initial value in comparison with the amount of the amplified product.

[6] = system: JAK2/STAT3 signal axis in MDA-MB-468 or HepG2 cells; test: Western blot of JAK2/STAT3 signal axis protein expression; conditions: MDA-MB-468 (0, 0.5, 1 μM) or HepG2 (0-8 μM), 48 h, vs solvent control; dose-dependent
Procedure: MDA-Mb-468 or HepG2 cells in logarithmic growth phase were inoculated in a 6-well plate, with 8×10^5 cells per well. After cell adhesion, the compound ID210203C-1 was added until a final concentration thereof was 0, 0.5, 1 or 0, 0.5, 1, 2, 4 and 8 μM respectively. After about 48 hours, the cells were lysed with RIPA lysate and proteins were collected for Western blot analysis. The protein expressions were respectively detected through the anti-JAK2, p-JAK2, STAT3, p-STAT3, CyclinD1, p-AKT, p-ERK and β-actin antibodies.

| Structure (SMILES) | inhibitory effect on the proliferation of tumor cells [1] | apoptosis of breast cancer cells (MDA-MB-468 cells [2]; 0.12 μM, 48 hours) [%] | induction of apoptosis (MDA-MB-468 cells [2]; MDA-MB-468, 0 and 0.12 μM, 48 h, vs control group) | G1 phase ratio (HepG2 cells [3]) | G2 phase ratio (HepG2 cells [3]) | G1 phase ratio (MDA-MB-468 cells [4]) | S phase ratio (MDA-MB-468 cells [4]) | induction of apoptosis (HepG2 cells [5]) | expression of MMP9 at mRNA level (HepG2 liver cancer cells) | down-regulation of Cyclin B1 (CCNB1) mRNA level (HepG2 liver cancer cells) [folds] | down-regulation of Cyclin D1 (CCND1) mRNA level (HepG2 liver cancer cells) [folds] | expression level of CyclinD1 [6] | expression level of p-JAK2 [6] | expression level of p-STAT3 [6] |
| --- | --- | --- | --- | --- | --- | --- | --- | --- | --- | --- | --- | --- | --- | --- |
| O=C(NCc1ccccn1)Nc1ccc(OCc2ccc(OCCN3CCCCC3)cc2)c2ccccc12 [IY210316B-1, 1-(4-((4-(2-(piperidin-1-yl)ethoxy)benzyl)oxy)naphthalen-1-yl)-3-(pyridin-2-ylmethyl)urea] | good inhibitory effects | 43.86 | increased apoptosis in a dose-dependent manner |  |  |  |  |  |  |  |  |  |  |  |
| O=C(Nc1ccc(OCc2ccc(OCCN3CCCCC3)cc2)c2ccccc12)NC1CCOCC1 [IY210216D-1] | good inhibitory effects |  |  | significant decrease | significant increase | decrease | significant increase | increased apoptosis in a dose-dependent manner | down-regulating | ~10 | ~10 |  |  |  |
| O=C(NCc1ccncc1)Nc1ccc(OCc2ccc(OCCN3CCCCC3)cc2)c2ccccc12 [ID210203C-1] | good inhibitory effects |  |  | significant decrease | significant increase | decrease | significant increase | increased apoptosis in a dose-dependent manner | down-regulating | ~10 | ~10 | significantly inhibit | significantly inhibit | significantly inhibit |
